Reference: US11142515B2, “Pyrazolyl-ureas as kinase inhibitors” (RESPIVERT LIMITED, priority 2014, dated 2021)

Assays:
[1] = target: T1, p38 MAPKα isoform (MAPK14) (Homo sapiens, UniProt Q16539); test: p38 MAPKα enzyme inhibition (Z-LYTE FRET); type: biochemical; settings: Table 2B, unit inferred; read-out: p38 MAPKα (Enzyme Profile)
T1 construct: purchased Life Technologies
Outline: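 Recombinant human MAPK14 (40 ng/mL stock) was preincubated 2 h at RT with compound (stock dilutions 0.0012-40 μg/mL). The Z-LYTE FRET read-out used a MAPKAP-K2-derived peptide, and protease development for 1 h cleaved only non-phosphorylated peptide. Phosphorylation was calculated from the coumarin/fluorescein emission ratio.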

p38MAPKγ (MAPK12) = target: T2, p38MAPKγ (MAPK12) (Homo sapiens, UniProt P53778); test: p38 MAPKγ enzyme inhibition (Z-LYTE FRET); type: biochemical; settings: Table 2B, unit inferred; read-out: p38 MAPKγ (Enzyme Profile)
T2 construct: purchased Life Technologies
T2 sequence (P53778 1-367): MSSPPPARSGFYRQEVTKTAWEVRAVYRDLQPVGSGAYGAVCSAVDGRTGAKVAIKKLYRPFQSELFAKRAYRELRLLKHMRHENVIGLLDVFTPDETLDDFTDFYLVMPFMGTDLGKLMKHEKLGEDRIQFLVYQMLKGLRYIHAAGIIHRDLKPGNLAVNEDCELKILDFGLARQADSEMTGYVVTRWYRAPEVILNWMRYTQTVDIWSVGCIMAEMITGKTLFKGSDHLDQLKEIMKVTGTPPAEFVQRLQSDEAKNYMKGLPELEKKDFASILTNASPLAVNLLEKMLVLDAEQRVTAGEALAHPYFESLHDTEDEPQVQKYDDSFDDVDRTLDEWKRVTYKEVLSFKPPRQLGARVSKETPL
Outline: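 Z-LYTE read-out: after 1 h protease development, only non-phosphorylated peptide is cleaved, and the donor/acceptor (coumarin/fluorescein) ratio reports phosphorylation. Beforehand, enzyme and compound (stock concentrations 0.0012–40 μg/mL) were preincubated 2 h at RT, then the kinase reaction ran 1 h at RT with peptide and ATP (8 μM and 400 μM stocks).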

T1 sequence (Q16539 whole entry, canonical isoform): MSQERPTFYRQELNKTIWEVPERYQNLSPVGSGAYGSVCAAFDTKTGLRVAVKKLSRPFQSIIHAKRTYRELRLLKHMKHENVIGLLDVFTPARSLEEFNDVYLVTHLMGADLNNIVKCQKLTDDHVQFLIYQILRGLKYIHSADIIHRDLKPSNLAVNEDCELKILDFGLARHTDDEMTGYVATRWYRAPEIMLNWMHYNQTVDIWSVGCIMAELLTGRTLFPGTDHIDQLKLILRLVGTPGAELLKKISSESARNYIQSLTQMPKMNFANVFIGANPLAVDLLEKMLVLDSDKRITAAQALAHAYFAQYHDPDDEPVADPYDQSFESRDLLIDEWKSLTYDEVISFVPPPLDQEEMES

| IC50 [1] [nM] | IC50 (p38MAPKγ (MAPK12)) [nM] | Structure (SMILES) |
| --- | --- | --- |
| 43 | 482 | COC(C)(C)CNC(=O)c1cnc(Nc2cc(COc3ccc(NC(=O)Nc4cc(C(C)(C)C)nn4-c4ccc(C)cc4)c4ccccc34)ccn2)cn1 [Example 74] |
| 39 | 345 | CO[C@H]1CCN(C(=O)c2cnc(Nc3cc(COc4ccc(NC(=O)Nc5cc(C(C)(C)C)nn5-c5ccc(C)cc5)c5ccccc45)ccn3)cn2)C1 [Example 67] |
| 21 | 218 | Cc1ccc(-n2nc(C(C)(C)C)cc2NC(=O)Nc2ccc(OCc3ccnc(Nc4cnc(CN5CCOCC5)cn4)c3)c3ccccc23)cc1 [Example 263, 1-(3-(tert-butyl)-1-(p-tolyl)-1H-pyrazol-5-yl)-3-(4-((2-((5-(morpholinomethyl)pyrazin-2-yl)amino)pyridin-4-yl)methoxy)naphthalen-1-yl)urea] |
| 3.4 | 401 | Cc1ccc(-n2nc(C(C)(C)C)cc2NC(=O)Nc2ccc(OCc3ccnc(Nc4cncc(N)n4)c3)c3ccccc23)cc1 [Example 106, 1-(4-((2-((6-aminopyrazin-2-yl)amino)pyridin-4-yl)methoxy)naphthalen-1-yl)-3-(3-(tert-butyl)-1-(p-tolyl)-1H-pyrazol-5-yl)urea] |
| 21 | 262 | COC1CCN(C(=O)c2cnc(Nc3cc(COc4ccc(NC(=O)Nc5cc(C(C)(C)C)nn5-c5ccc(C)cc5)c5ccccc45)ccn3)cn2)CC1 [Example 56] |
| 6.5 | 54 | COCCNC(=O)Cc1cncc(Nc2cc(COc3ccc(NC(=O)Nc4cc(C(C)(C)C)nn4-c4ccc(C)cc4)c4ccccc34)ccn2)n1 [Example 209, 2-(6-((4-(((4-(3-(3-(tert-butyl)-1-(p-tolyl)-1H-pyrazol-5-yl)ureido)naphthalen-1-yl)oxy)methyl)pyridin-2-yl)amino)pyrazin-2-yl)-N-(2-methoxyethyl)acetamide] |
| 55 | > 14700 | Cc1ccc(-n2nc(C(C)(C)C)cc2NC(=O)Nc2ccc(OCc3ccnc(Nc4cnc(C(=O)N5CCC5)cn4)c3)c3ccccc23)cc1 [Example 128, 1-(4-((2-((5-(azetidine-1-carbonyl)pyrazin-2-yl)amino)pyridin-4-yl)methoxy)naphthalen-1-yl)-3-(3-(tert-butyl)-1-(p-tolyl)-1H-pyrazol-5-yl)urea] |

The next lines start with the compound.

| Structure (SMILES) | IC50 [1] [nM] | IC50 (p38MAPKγ (MAPK12)) [nM] |
| --- | --- | --- |
| CC(C)c1cccc(-n2nc(C(C)(C)C)cc2NC(=O)Nc2ccc(OCc3ccnc(Nc4cnccn4)c3)c3ccccc23)c1 [Example 131, 1-(3-(tert-butyl)-1-(3-isopropylphenyl)-1H-pyrazol-5-yl)-3-(4-((2-(pyrazin-2-ylamino)pyridin-4-yl)methoxy)naphthalen-1-yl) urea] | 14 | > 15900 |
| CC(C)(C)c1cc(NC(=O)Nc2ccc(OCc3ccnc(Nc4cnc(C(=O)N5CCCC5)cn4)c3)c3ccccc23)n(-c2ccc(F)cc2)n1 [Example 215, 1-(3-(tert-butyl)-1-(4-fluoro-phenyl)-1H-pyrazol-5-yl)-3-(4-((2-((5-(pyrrolidine-1-carbonyl)pyrazin-2-yl)amino)pyridin-4-yl)methoxy)naphthalen-1-yl)urea] | 15 | > 14300 |
| CCc1cncc(Nc2cc(COc3ccc(NC(=O)Nc4cc(C(C)(C)C)nn4-c4cccc(COC)c4)c4ccccc34)ccn2)n1 [Example 222, 1-(3-(tert-butyl)-1-(3-(methoxymethyl)phenyl)-1H-pyrazol-5-yl)-3-(4-((2-((6-ethylpyrazin-2-yl)amino)pyridin-4-yl)methoxy)naphthalen-1-yl)urea] | 23 | 175 |
| Cc1cccc(-n2nc(C(C)(C)C)cc2NC(=O)Nc2ccc(OCc3ccnc(Nc4cnc(C(=O)N5CC[C@@H](O)C5)cn4)c3)c3ccccc23)c1 [Example 69] | 8 | 106 |
| COc1cc(C)cc(-n2nc(C(C)(C)C)cc2NC(=O)Nc2ccc(OCc3ccnc(Nc4cnccn4)c3)c3ccccc23)c1 [Example 196, 1-(3-(tert-butyl)-1-(3-methoxy-5-methylphenyl)-1H-pyrazol-5-yl)-3-(4-((2-(pyrazin-2-ylamino)pyridin-4-yl)methoxy)naphthalen-1-yl)urea] | 29 | 219 |
